Experimental data reported in patent US11124479B2, “Oligopyrroles as antagonists of islet amyloid polypeptide oligomerization” (New York University, priority 2017, dated 2021).

Legend:
[1] = target: T1, islet amyloid polypeptide (IAPP) (Homo sapiens, UniProt P10997); assay: ThT-based kinetic assay of IAPP fibrillation; format: biochemical; conditions: for relative t50 of IAPP fibrillation versus control reaction: 15 μM IAPP, equimolar ratio
T1 construct: IAPP is a 37 residue neuropancreatic hormone peptide; purchased Anaspec (Fremont, Calif.)
T1 sequence (P10997 34-70 limits assumed): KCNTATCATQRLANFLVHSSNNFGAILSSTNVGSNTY
Text: The aggregation kinetics of IAPP was probed using an exogenous reporter, Thioflavin T (ThT), which quantifies the amount of fibers in solution without perturbing the aggregation kinetics of IAPP (see Wolfe, L. S.; Calabrese, M. F.; Nath, A.; Blaho, D. V.; Miranker, A. D.; Xiong, Y. Proc. Natl. Acad. Sci. U.S.A. 2010, 107, 16863-16868; Levine, H. Protein Sci. 1993, 2, 404-410). […] The kinetics of IAPP fibrillation was quantified using the reaction midpoint, t50, which is the time required to reach 50% fluorescence in the fibrillation reaction (FIG. 8).
Kinetic assays were conducted on a FlexStation 3 Multi-Mode Microplate reader from Molecular Devices (Sunnyvale, Calif.). Experiments were conducted in triplicate in a 96-well plate with a final volume of 200 μL per well. Every measurement was an average of 50 readings. The aggregation of IAPP was initiated by its addition from a stock solution (1 mM in DMSO) to phosphate buffer. The stoichiometry ratio for ThT to IAPP was 0.5:1. Peptide aggregation was monitored by ThT fluorescence (λex=445 nm and λem=485 nm). The blank sample contained all the components of the peptide samples except peptide. The sample data were processed by subtracting the blank and renormalizing the fluorescence intensity by setting the maximum value to 1.
Kinetic assays in the presence of the compounds of the invention were conducted under the same conditions. Small molecules were added from a stock solution (1 mM or 10 mM in DMSO) to keep the final concentration of DMSO less than 1.0% (v/v). Small molecules were added to the wells with ThT and buffer and mixed gently with a pipette before adding IAPP. To keep the conditions identical, an equal amount of DMSO was added to the wells with IAPP only reactions. For the aggregation kinetics of Aβ42, the peptide was dissolved in 1N NaOH (0.5-1 mM) and vortexed for 2 min. to ensure the complete solubility. The aggregation of 3 μM Aβ42 was initiated by addition of peptide from a stock solution (in 1 N NaOH, 0.5-1 mM) to phosphate buffer.
Kinetic profiles were processed using Origin (version 9.1). Kinetic curves were fit using the built-in sigmoidal fit. Each run was fit independently to extract the t50 (time required to reach 50% of the maximum fluorescence intensity). Error bars represent standard deviations from the mean of at least three independent experiments.
The membrane model system selected for the amyloid assays is a mixture of DOPG (dioleoylphosphatidylglycerol) and DOPC (dioleoylphosphatidylcholine) at 3:7 molar ratio, which mimics physiological conditions (Ono, K.; Condron, M. M.; Teplow, D. B. Proc. Natl. Acad. Sci. U.S.A. 2009, 106, 14745-14750). The lipid catalyzed aggregation of IAPP was initiated by adding freshly prepared 15 μM IAPP (1 mM stock solution in DMSO) to the phosphate buffer (50 mM NaPi, 150 mM KCl, pH 7.4) containing 15 μM ThT and 750 μM of unilamellar liposomes (LUVs, DOPG:DOPC, 3:7, d=100 nm).

[2] = target: T1, islet amyloid polypeptide (IAPP); assay: Transmission electron microscopy (TEM) of IAPP fibers; conditions: 10 μM IAPP, equimolar ratio
Protocol: […] Aliquots of these samples were then applied to glow-discharged carbon-coated 300-mesh copper grids for 2 min and dried. Grids were negatively stained with uranyl acetate (2%, w/v) and dried. Micrographs of grids were examined on a Phillips CM12 Cryoelectron Microscope equipped with Gatan 4 k×2.7 k CCD camera at 120-kV accelerating voltage.

[3] = Partition coefficient; format: physicochemical
[4] = target: T1, islet amyloid polypeptide (IAPP); assay: ThT-based kinetic assay of IAPP fibrillation; format: biochemical

antagonist of oligomerization, fibrillation, and/or aggregation of IAPP (in words) [1]: effective antagonist
inhibition of IAPP aggregation ([1]; de novo (no lipid membrane), fivefold excess): completely abolishes
relative t50 of IAPP fibrillation versus control reaction ([1]; de novo / lipid free): 4.4 fold
change in the intensity of ThT ([1]; identical conditions without IAPP): no significant change
relative t50 of IAPP fibrillation versus control reaction ([1]; lipid catalyzed (750 μM LUVs, DOPG:DOPC 3:7)): 2.7 fold
fold better inhibitor of IAPP fibrillation than Acid Fuchsin ([1]; lipid catalyzed conditions): 3.5 fold
fold better inhibitor of IAPP fibrillation than Curcumin ([1]; lipid catalyzed conditions): 2.2 fold
fold better inhibitor of IAPP fibrillation than EGCG ([1]; lipid catalyzed conditions): 3.3 fold
inhibition of IAPP fibrillation ([1]; lipid catalyzed, stoichiometric ratio 10:1 (ADH-101:IAPP)): completely inhibits
fiber formation by TEM ([2]; 12 hours): no formation of fibers
fiber formation by TEM ([2]; 24 h): formation of amorphous fibers
logP [3]: 2.2
inhibition of IAPP fibrillation when added during the lag phase, compared to premixed (t=0 h) ([4]; added at 1 h and 3 h, equimolar ratio, 10 μM IAPP): equally effective
effect on IAPP amyloid fibers (ThT fluorescence) ([4]; added to the fibers): no effect
factor of delay of IAPP amyloid kinetics ([4]; cholesterol-containing LUVs (30% cholesterol), 15 μM IAPP, equimolar ratio): 3.6
Structure (SMILES): CCOC(=O)c1cc(NC(=O)c2cc(NC(=O)c3cc([N+](=O)[O-])cn3CC(C)C)cn2CC(C)C)cn1CCC(=O)O [ADH-101]
